From patent US5846940A, “Corneal therapeutic agent” (Okamoto; Sinseiro, priority 1994, dated 1998)

System: corneas of colored rabbit after excimer laser abrasion
Assay: accelerating activity for corneal wound healing after excimer laser treatment (histological observation of corneal slices)
Format: in vivo
Conditions: eye drop 100 μg/ml; for epithelium regeneration in the excimer-laser irradiated portion / inflammatory changes / thickness of the regenerated epithelium / vacuolation and fibroblast growth in the tunica propria / under the epithelium: single droplet twice a day for 5 to 7 days, optical microscope
Procedure: The following tests were performed with respect to the accelerating activity for the corneal wound healing after excimer laser treatment.
HP 1 and HP 2 were diluted with 1.2 ml of an oxyglutathion eye-perfusion/washing solution (trade name: BSS plus, manufactured by Santen Seiyaku) to obtain a diluted solution in a final concentration of 0.1 mg/ml. 1000 μg/ml of EGF was diluted with 1 ml of the oxyglutathion eye-perfusion/washing solution to obtain a diluted solution in a final concentration of 0.1 mg/ml. FN was diluted with 10 ml of the oxyglutathion eye-perfusion/washing solution to obtain a diluted solution in a final concentration of 0.1 mg/ml.
A colored rabbit was used as a test animal. The following surgical operation was applied to the rabbit.
An excimer laser was radiated to the corneas of both eyes of the rabbit under the condition of 180 mj/10 nsec (10 Hz) per pulse. By this radiation, the surface of central corneal parenchyma was cut off by abrasion in the form of a meniscus having a diameter of 4.5 mm (9.9 diopter) and a maximum center-depth of 70 μm. The excimer laser was radiated by using Omunimed (trade name) manufactured by Summit (U.S.A.).
Each of the aforementioned samples was administered to both eyes twice a day. A single droplet (about 50 μl) was administrated once in the morning and the afternoon for 5 to 7 days.
As Comparative examples, eye drops were prepared by dissolving the aforementioned samples in the oxyglutathion eye perfusion/washing solution in accordance with Table 2 and administered to both eyes of the rabbit.
After completion of droplet administration, right and left eyes were taken out from the rabbit and fixed with a glutathion aldehyde/formalin fixing solution. After the fixation, each cornea including a laser irradiated portion and a non-irradiated portion were excised out. Then, paraffin blocks were prepared in accordance with a customary method and thin-film slices of 5 μm thick were prepared by means of a microtome. The obtained corneal slices were stained with H.E. (hematoxylin-eosin) and then subjected to special staining such as PAS or trichrome.

Row | Molecule | epithelium regeneration in the excimer-laser irradiated portion | inflammatory changes | thickness of the regenerated epithelium | vacuolation and fibroblast growth in the tunica propria / under the epithelium | overall corneal wound healing accelerating / corneal therapeutic effect (conclusion) (after excimer laser treatment)
1 | fibronectin [FN] | observed in the entire irradiated portion | inflammatory changes were observed | nonuniform | relatively significant | –
2 | CC[C@H](C)[C@H](NC(=O)[C@H](Cc1ccc(O)cc1)NC(=O)[C@@H]1CCCN1C(=O)[C@H](CCCNC(=N)N)NC(=O)[C@H](CCCNC(=N)N)NC(C)=O)C(=O)N[C@@H](CC(C)C)C(=O)O [HP2, N-acetyl-Arg-Arg-Pro-Tyr-Ile-Leu-OH] | observed in the entire irradiated portion | not observed | nonuniform | Vacuolation and fibroblast growth were observed | confirmed to have an corneal wound healing accelerating effect
3 | EGF: epithelial cell growth factor, manufactured by Bio Medical Technologies | observed in the entire irradiated portion | inflammatory changes were observed | nearly uniform | vacuolation and fibroblast growth were observed | –
